In BindingDB's records for doi:10.1021/acsmedchemlett.1c00437 (University of Pennsylvania, 2021):

Key:
[1] = Inhibition of gp120 in HIV-1 pseudotyped with A-MLV envelop glycoprotein infected in dog Cf2Th-CD4/CCR5 cells assessed as inhibition of viral entry incubated for 30 mins prior to infection and further incubated for 48 to 72 hrs in presence of firefly D-luciferin free acid and ATP by single-round infection luciferase assay
[2] = Inhibition of gp120 in HIV-1 AD8 infected in dog Cf2Th-CD4/CCR5 cells assessed as inhibition of viral entry incubated for 30 mins prior to infection and further incubated for 48 to 72 hrs in presence of firefly D-luciferin free acid and ATP by single-round infection luciferase assay
[3] = Inhibition of gp120 in HIV-1 A4 infected in dog Cf2Th-CD4/CCR5 cells assessed as inhibition of viral entry incubated for 30 mins prior to infection and further incubated for 48 to 72 hrs in presence of firefly D-luciferin free acid and ATP by single-round infection luciferase assay
[4] = Inhibition of gp120 in HIV-1 191084 infected in dog Cf2Th-CD4/CCR5 cells assessed as inhibition of viral entry incubated for 30 mins prior to infection and further incubated for 48 to 72 hrs in presence of firefly D-luciferin free acid and ATP by single-round infection luciferase assay

IC50 [1]	IC50 [2]	IC50 [3]	IC50 [4]	Structure (SMILES)
> 300 µM	7.4 µM			C=CCC[C@@H]1c2cc(CNC)ccc2[C@H](NC(=O)C(=O)Nc2ccc(Cl)c(F)c2)[C@H]1CNC(=N)N
> 300 µM	7.7 µM			CNCc1ccc2c(c1)[C@@H](CCCO)[C@H](CNC(=N)N)[C@H]2NC(=O)C(=O)Nc1ccc(Cl)c(F)c1
> 300 µM	3.32 µM	98.9 µM	20.6 µM	CNCc1ccc2c(c1)[C@@H](CCC(O)CO)[C@H](CNC(=N)N)[C@H]2NC(=O)C(=O)Nc1ccc(Cl)c(F)c1 (some centres undefined)
> 100 µM	3.35 µM			CNCc1ccc2c(c1)[C@@H](CCC(=O)CO)[C@H](CNC(=N)N)[C@H]2NC(=O)C(=O)Nc1ccc(Cl)c(F)c1
> 300 µM	0.91 µM			[H]/N=C(/N)NC[C@H]1[C@H](CC[C@H](O)CO)c2cc(CNC)ccc2[C@@H]1NC(=O)C(=O)Nc1ccc(Cl)c(F)c1
> 300 µM	1.6 µM			[H]/N=C(/N)NC[C@H]1[C@H](CC[C@@H](O)CO)c2cc(CNC)ccc2[C@@H]1NC(=O)C(=O)Nc1ccc(Cl)c(F)c1
> 300 µM	2.05 µM			CNCc1ccc2c(c1)[C@H](NC(=O)C(=O)Nc1ccc(Cl)c(F)c1)[C@@H](CNC(=N)N)[C@@H]2CCCO
> 300 µM	0.96 µM			CNCc1ccc2c(c1)[C@H](NC(=O)C(=O)Nc1ccc(Cl)c(F)c1)[C@@H](CNC(=N)N)[C@@H]2CCC(O)CO (some centres undefined)
> 300 µM	2.22 µM			CNCc1ccc2c(c1)[C@H](NC(=O)C(=O)Nc1ccc(Cl)c(F)c1)[C@@H](CNC(=N)N)[C@@H]2CC[C@H](O)CO
> 100 µM				CCCC[C@@H]1c2cc(CNC)ccc2[C@H](NC(=O)C(=O)Nc2ccc(Cl)c(F)c2)[C@H]1CNC(=N)N
> 300 µM				C=CCC[C@@H]1c2ccc(CNC)cc2[C@H](NC(=O)C(=O)Nc2ccc(Cl)c(F)c2)[C@H]1CNC(=N)N
		200 µM	95.9 µM	[H]/N=C(/N)NC[C@H]1Cc2cc(CNC)ccc2[C@@H]1NC(=O)C(=O)Nc1ccc(Cl)c(F)c1
